# From publication PMC10482267, “Safety, tolerability, pharmacokinetics, and pharmacodynamics of single and multiple doses of aficamten in healthy Chinese participants: a randomized, double-blind, placebo-controlled, phase 1 study” (Frontiers in Pharmacology, 2023)
# Where two headings read alike, the source gives them in different places.
# Test system: healthy Chinese participants
# Assay type: in vivo, human
# Text: Of note, the study was not designed to identify a maximum tolerated dose. Dose escalation was to stop if a non-tolerated dose was identified. PD endpoints, including left ventricular ejection fraction (LVEF), would be measured with echocardiograms, which were reviewed by an independent cardiologist for safety assessments. The study drug would be discontinued for participants who develop left ventricular dysfunction according to pre-specified stopping rules. For additional safety monitoring, an independent, unblinded cardiologist was present at the clinical research unit from dosing through the completion of the echocardiogram on the last dosing day.
# Echocardiography assessments (left ventricular fractional shortening [LVFS], left ventricular stroke volume [LVSV], left ventricular outflow tract velocity time integral [LVOT-VTI], left ventricular end-systolic volume [LVESV], left ventricular end-diastolic volume [LVEDV], left ventricular cardiac output [LVCO], and LVEF) for the SAD cohorts were collected on day 1 (baseline) and at 1.5, 4, and 24 h post-dose on day 1. For the MD cohort, the assessments were collected on day 1 (baseline) at 1.5 and 4 h post-dose on day 1, at 1.5 h post-dose on days 2, 4, and 9, and at 3 and 24 h post-dose on day 14.
# Of all the echocardiography parameters, the key parameters LVEF and LVFS were classified as follows with the number of participants summarized for each dosing condition: for the LVEF category, baseline LVEF ≥60%, and post-dose LVEF <50% or <45%; change of LVEF from baseline ≤ 5%, ≤10%, or ˂15%; for the VLFS category, change of LVFS from baseline ≤ 5%, ≤10%, or ˂15%. The dose–PD response relationship between the aficamten dose and placebo group was assessed using ANOVA analysis. […] Furthermore, the relationship between PK concentration–PD response was also assessed using ANCOVA analysis of post-dose PD parameters based on changes from baseline. The model included changes from baseline in PD parameters as the dependent variables, concentration tertiles (categorical variables) as fixed effects, baseline PD parameters as covariates, and the random intercept to account for repeated measures. In addition, the heart rate (HR), systolic blood pressure (SBP), and diastolic blood pressure (DBP) were collected as a part of the vital sign assessments at pre-dose and post-dose.
# [1] = MD 5 mg N=9, 25.5 h (1.5 hours post-dose on Day 2)
# [2] = MD 5 mg N=9, 73.5 h (1.5 hours post-dose on Day 4)
# [3] = MD 5 mg N=9, 193.5 h (1.5 hours post-dose on Day 9)
# [4] = MD 5 mg N=9, 315 h (3 hours post-dose on Day 14)
# [5] = MD 5 mg N=9, 336 h (24 hours post-dose on Day 14)
smiles,measurement,setting,value
CCc1nc(-c2ccc3c(c2)CC[C@H]3NC(=O)c2cnn(C)c2)no1 [aficamten],"LVEF Change From Baseline ≤ -5, participants","MD 5 mg N=9, 1.5 h",1 (11.11%) n (%)
same,"LVEF Change From Baseline ≤ -10, participants","MD 5 mg N=9, 1.5 h",0 (0%) n (%)
same,"LVEF Change From Baseline ≤ -15, participants","MD 5 mg N=9, 1.5 h",0 (0%) n (%)
same,"LVFS Change from Baseline ≤ -5, participants","MD 5 mg N=9, 1.5 h",3 (33.33%) n (%)
same,"LVFS Change from Baseline ≤ -10, participants","MD 5 mg N=9, 1.5 h",1 (11.11%) n (%)
same,"LVFS Change from Baseline ≤ -15, participants","MD 5 mg N=9, 1.5 h",0 (0%) n (%)
same,"LVEF Change From Baseline ≤ -5, participants",[1],4 (44.44%) n (%)
same,"LVEF Change From Baseline ≤ -10, participants",[1],0 (0%) n (%)
same,"LVEF Change From Baseline ≤ -15, participants",[1],0 (0%) n (%)
same,"LVFS Change from Baseline ≤ -5, participants",[1],4 (44.44%) n (%)
same,"LVFS Change from Baseline ≤ -10, participants",[1],0 (0%) n (%)
same,"LVFS Change from Baseline ≤ -15, participants",[1],0 (0%) n (%)
same,"LVEF Change From Baseline ≤ -5, participants",[2],3 (33.33%) n (%)
same,"LVEF Change From Baseline ≤ -10, participants",[2],0 (0%) n (%)
same,"LVEF Change From Baseline ≤ -15, participants",[2],0 (0%) n (%)
same,"LVFS Change from Baseline ≤ -5, participants",[2],5 (55.56%) n (%)
same,"LVFS Change from Baseline ≤ -10, participants",[2],1 (11.11%) n (%)
same,"LVFS Change from Baseline ≤ -15, participants",[2],0 (0%) n (%)
same,"LVEF Change From Baseline ≤ -5, participants",[3],1 (11.11%) n (%)
same,"LVEF Change From Baseline ≤ -10, participants",[3],0 (0%) n (%)
same,"LVEF Change From Baseline ≤ -15, participants",[3],0 (0%) n (%)
same,"LVFS Change from Baseline ≤ -5, participants",[3],4 (44.44%) n (%)
same,"LVFS Change from Baseline ≤ -10, participants",[3],0 (0%) n (%)
same,"LVFS Change from Baseline ≤ -15, participants",[3],0 (0%) n (%)
same,"LVEF Change From Baseline ≤ -5, participants",[4],2 (22.22%) n (%)
same,"LVEF Change From Baseline ≤ -10, participants",[4],0 (0%) n (%)
same,"LVEF Change From Baseline ≤ -15, participants",[4],0 (0%) n (%)
same,"LVFS Change from Baseline ≤ -5, participants",[4],1 (11.11%) n (%)
same,"LVFS Change from Baseline ≤ -10, participants",[4],0 (0%) n (%)
same,"LVFS Change from Baseline ≤ -15, participants",[4],0 (0%) n (%)
same,"LVEF Change From Baseline ≤ -5, participants",[5],2 (22.22%) n (%)
same,"LVEF Change From Baseline ≤ -10, participants",[5],0 (0%) n (%)
same,"LVEF Change From Baseline ≤ -15, participants",[5],0 (0%) n (%)
same,"LVFS Change from Baseline ≤ -5, participants",[5],1 (11.11%) n (%)
same,"LVFS Change from Baseline ≤ -10, participants",[5],0 (0%) n (%)
same,"LVFS Change from Baseline ≤ -15, participants",[5],0 (0%) n (%)
same,exposure–response analysis of change from baseline in echocardiogram parameters vs time-matched plasma concentrations,MD 5 mg cohort,did not show a statistically significant effect
same,"LVEF Change From Baseline ≤ -5, participants","SAD 10 mg N=6, 1.5 h",1 (16.67%) n (%)
same,"LVEF Change From Baseline ≤ -10, participants","SAD 10 mg N=6, 1.5 h",0 (0%) n (%)
same,"LVEF Change From Baseline ≤ -15, participants","SAD 10 mg N=6, 1.5 h",0 (0%) n (%)
same,"LVFS Change from Baseline ≤ -5, participants","SAD 10 mg N=6, 1.5 h",1 (16.67%) n (%)
same,"LVFS Change from Baseline ≤ -10, participants","SAD 10 mg N=6, 1.5 h",0 (0%) n (%)
same,"LVFS Change from Baseline ≤ -15, participants","SAD 10 mg N=6, 1.5 h",0 (0%) n (%)
same,"LVEF Change From Baseline ≤ -5, participants","SAD 10 mg N=6, 4 h",1 (16.67%) n (%)
same,"LVEF Change From Baseline ≤ -10, participants","SAD 10 mg N=6, 4 h",0 (0%) n (%)
same,"LVEF Change From Baseline ≤ -15, participants","SAD 10 mg N=6, 4 h",0 (0%) n (%)
same,"LVFS Change from Baseline ≤ -5, participants","SAD 10 mg N=6, 4 h",0 (0%) n (%)
same,"LVFS Change from Baseline ≤ -10, participants","SAD 10 mg N=6, 4 h",0 (0%) n (%)
same,"LVFS Change from Baseline ≤ -15, participants","SAD 10 mg N=6, 4 h",0 (0%) n (%)
same,"LVEF Change From Baseline ≤ -5, participants","SAD 10 mg N=6, 24 h",0 (0%) n (%)
same,"LVEF Change From Baseline ≤ -10, participants","SAD 10 mg N=6, 24 h",0 (0%) n (%)
same,"LVEF Change From Baseline ≤ -15, participants","SAD 10 mg N=6, 24 h",0 (0%) n (%)
same,"LVFS Change from Baseline ≤ -5, participants","SAD 10 mg N=6, 24 h",1 (16.67%) n (%)
same,"LVFS Change from Baseline ≤ -10, participants","SAD 10 mg N=6, 24 h",0 (0%) n (%)
same,"LVFS Change from Baseline ≤ -15, participants","SAD 10 mg N=6, 24 h",0 (0%) n (%)
same,number of subjects with LVEF reduction of 5%–10%,"SAD 10 mg-dose group, 1.5 h post-dose",one
same,"LVEF Change From Baseline ≤ -5, participants","SAD 20 mg N=6, 1.5 h",3 (50%) n (%)
same,"LVEF Change From Baseline ≤ -10, participants","SAD 20 mg N=6, 1.5 h",1 (16.67%) n (%)
same,"LVEF Change From Baseline ≤ -15, participants","SAD 20 mg N=6, 1.5 h",0 (0%) n (%)
same,"LVFS Change from Baseline ≤ -5, participants","SAD 20 mg N=6, 1.5 h",3 (50%) n (%)
same,"LVFS Change from Baseline ≤ -10, participants","SAD 20 mg N=6, 1.5 h",1 (16.67%) n (%)
same,"LVFS Change from Baseline ≤ -15, participants","SAD 20 mg N=6, 1.5 h",0 (0%) n (%)
same,"LVEF Change From Baseline ≤ -5, participants","SAD 20 mg N=6, 4 h",2 (33.33%) n (%)
same,"LVEF Change From Baseline ≤ -10, participants","SAD 20 mg N=6, 4 h",0 (0%) n (%)
same,"LVEF Change From Baseline ≤ -15, participants","SAD 20 mg N=6, 4 h",0 (0%) n (%)
same,"LVFS Change from Baseline ≤ -5, participants","SAD 20 mg N=6, 4 h",1 (16.67%) n (%)
same,"LVFS Change from Baseline ≤ -10, participants","SAD 20 mg N=6, 4 h",0 (0%) n (%)
same,"LVFS Change from Baseline ≤ -15, participants","SAD 20 mg N=6, 4 h",0 (0%) n (%)
same,"LVEF Change From Baseline ≤ -5, participants","SAD 20 mg N=6, 24 h",1 (16.67%) n (%)
same,"LVEF Change From Baseline ≤ -10, participants","SAD 20 mg N=6, 24 h",0 (0%) n (%)
same,"LVEF Change From Baseline ≤ -15, participants","SAD 20 mg N=6, 24 h",0 (0%) n (%)
same,"LVFS Change from Baseline ≤ -5, participants","SAD 20 mg N=6, 24 h",2 (33.33%) n (%)
same,"LVFS Change from Baseline ≤ -10, participants","SAD 20 mg N=6, 24 h",0 (0%) n (%)
same,"LVFS Change from Baseline ≤ -15, participants","SAD 20 mg N=6, 24 h",0 (0%) n (%)
same,number of subjects with LVEF reduction of 10%–15%,"SAD 20 mg group, 1.5 h post-dose",one
same,number of participants with LVEF reduction of 5%–10%,"SAD 20 mg-dose group, 1.5 h post-dose",three
same,LVFS change from baseline vs placebo group by PK concentration group,"SAD cohorts, group 2: 37.6–56.3 ng/mL, p < 0.05",statistically significant changes from baseline
same,LVEF change from baseline vs placebo group by PK concentration group,"SAD cohorts, group 3: 62.5–199.0 ng/mL, p < 0.05",statistically significant changes from baseline
same,PK–PD relationship between plasma concentration and LVEF and LVFS,"SAD cohorts, p < 0.05",significant inverse PK–PD relationships
same,"PD parameter changes from baseline, dose group vs placebo group","any dose group, ANOVA",no statistically significant difference
